Assay results as given in article PMC12586182 (Frontiers in Oncology, 2025).

Columns and labels:
Test in all cases: Kinase panel profiling at 1 µmol/L (mobility shift assay, Carna)
Format in all cases: biochemical
Conditions in all cases: 1 µmol/L of BTK inhibitor
CK1γ1 = biological target: T1, CK1γ1 (Homo sapiens, UniProt Q9HCP0)
T1 construct: purchased Carna Biosciences

TSSK1 = biological target: T2, TSSK1 (Homo sapiens, UniProt Q9BXA7)
T2 construct: purchased Carna Biosciences
T2 sequence (Q9BXA7 1-367): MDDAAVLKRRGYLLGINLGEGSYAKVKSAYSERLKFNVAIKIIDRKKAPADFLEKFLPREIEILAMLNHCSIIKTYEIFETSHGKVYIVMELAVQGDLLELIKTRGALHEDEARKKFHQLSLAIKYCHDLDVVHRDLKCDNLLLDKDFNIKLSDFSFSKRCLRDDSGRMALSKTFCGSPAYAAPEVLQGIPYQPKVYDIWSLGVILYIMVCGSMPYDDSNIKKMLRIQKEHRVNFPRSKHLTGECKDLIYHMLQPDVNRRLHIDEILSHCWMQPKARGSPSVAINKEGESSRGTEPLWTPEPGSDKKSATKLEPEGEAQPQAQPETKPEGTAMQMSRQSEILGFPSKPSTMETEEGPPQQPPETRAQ

CHK2 = biological target: T3, CHK2 (Homo sapiens, UniProt O96017)
T3 construct: purchased Carna Biosciences

NDR1 = biological target: T4, NDR1 (Homo sapiens, UniProt Q15208)
T4 construct: purchased Carna Biosciences

HIPK2 = biological target: T5, HIPK2 (Homo sapiens, UniProt Q9H2X6)
T5 construct: purchased Carna Biosciences

BRSK1 = biological target: T6, BRSK1 (Homo sapiens, UniProt Q8TDC3)
T6 construct: purchased Carna Biosciences
T6 sequence (Q8TDC3 1-778): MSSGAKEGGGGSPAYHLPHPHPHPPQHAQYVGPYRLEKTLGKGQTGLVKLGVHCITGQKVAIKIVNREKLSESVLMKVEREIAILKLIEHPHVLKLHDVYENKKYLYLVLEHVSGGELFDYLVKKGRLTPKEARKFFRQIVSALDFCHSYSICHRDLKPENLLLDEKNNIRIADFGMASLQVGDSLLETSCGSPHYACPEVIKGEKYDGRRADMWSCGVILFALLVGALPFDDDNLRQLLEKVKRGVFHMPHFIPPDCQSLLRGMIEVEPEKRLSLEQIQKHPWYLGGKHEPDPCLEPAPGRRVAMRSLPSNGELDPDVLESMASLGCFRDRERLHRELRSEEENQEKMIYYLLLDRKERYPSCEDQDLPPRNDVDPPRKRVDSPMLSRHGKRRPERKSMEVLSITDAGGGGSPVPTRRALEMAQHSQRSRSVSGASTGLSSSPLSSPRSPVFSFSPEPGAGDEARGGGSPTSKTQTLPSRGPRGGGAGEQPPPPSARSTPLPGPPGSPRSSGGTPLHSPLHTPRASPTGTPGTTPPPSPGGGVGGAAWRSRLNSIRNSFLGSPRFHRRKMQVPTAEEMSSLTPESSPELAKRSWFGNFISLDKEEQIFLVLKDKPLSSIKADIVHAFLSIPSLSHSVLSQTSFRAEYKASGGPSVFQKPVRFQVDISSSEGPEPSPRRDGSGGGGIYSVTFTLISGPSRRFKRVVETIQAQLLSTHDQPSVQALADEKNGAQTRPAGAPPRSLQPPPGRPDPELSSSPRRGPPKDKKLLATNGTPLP

EPHB4 = biological target: T7, EPHB4 (Homo sapiens, UniProt P54760)
T7 construct: purchased Carna Biosciences
T7 sequence (P54760 16-987): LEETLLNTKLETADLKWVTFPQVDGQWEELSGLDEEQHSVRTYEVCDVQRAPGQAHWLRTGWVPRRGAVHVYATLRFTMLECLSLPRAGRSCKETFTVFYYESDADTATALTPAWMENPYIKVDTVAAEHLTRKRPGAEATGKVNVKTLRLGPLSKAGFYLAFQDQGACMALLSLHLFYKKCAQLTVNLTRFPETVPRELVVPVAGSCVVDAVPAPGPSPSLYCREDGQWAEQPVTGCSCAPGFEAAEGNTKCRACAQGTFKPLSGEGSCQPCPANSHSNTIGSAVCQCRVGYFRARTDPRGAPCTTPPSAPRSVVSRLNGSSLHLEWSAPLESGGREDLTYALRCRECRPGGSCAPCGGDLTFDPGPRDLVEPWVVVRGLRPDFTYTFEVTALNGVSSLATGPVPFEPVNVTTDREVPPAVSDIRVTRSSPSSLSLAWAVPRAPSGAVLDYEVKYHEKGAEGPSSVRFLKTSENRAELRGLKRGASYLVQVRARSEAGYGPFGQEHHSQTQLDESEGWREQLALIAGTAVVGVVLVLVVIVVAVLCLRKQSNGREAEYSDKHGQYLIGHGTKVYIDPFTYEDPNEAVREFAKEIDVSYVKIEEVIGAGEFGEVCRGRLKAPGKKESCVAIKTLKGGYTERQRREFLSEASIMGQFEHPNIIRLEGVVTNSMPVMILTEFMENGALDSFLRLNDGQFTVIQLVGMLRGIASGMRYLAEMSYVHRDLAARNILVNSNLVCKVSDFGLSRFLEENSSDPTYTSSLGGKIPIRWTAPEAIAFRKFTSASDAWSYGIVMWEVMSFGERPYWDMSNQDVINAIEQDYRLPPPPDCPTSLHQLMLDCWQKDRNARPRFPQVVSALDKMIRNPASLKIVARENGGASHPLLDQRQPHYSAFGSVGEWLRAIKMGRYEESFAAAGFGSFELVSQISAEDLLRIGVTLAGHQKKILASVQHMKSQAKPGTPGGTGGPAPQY

PBK = biological target: T8, PBK (Homo sapiens, UniProt Q96KB5)
T8 construct: purchased Carna Biosciences
T8 sequence (Q96KB5 1-322): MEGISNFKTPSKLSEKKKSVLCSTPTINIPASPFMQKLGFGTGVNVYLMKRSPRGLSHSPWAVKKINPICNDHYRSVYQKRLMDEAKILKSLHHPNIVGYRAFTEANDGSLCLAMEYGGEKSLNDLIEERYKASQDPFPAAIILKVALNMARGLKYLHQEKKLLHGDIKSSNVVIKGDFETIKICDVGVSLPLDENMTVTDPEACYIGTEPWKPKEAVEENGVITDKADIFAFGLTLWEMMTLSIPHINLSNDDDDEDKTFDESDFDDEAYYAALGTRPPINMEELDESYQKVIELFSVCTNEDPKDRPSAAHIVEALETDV

CLK2 = biological target: T9, CLK2 (Homo sapiens, UniProt P49760)
T9 construct: purchased Carna Biosciences

BLK = biological target: T10, BLK (Homo sapiens, UniProt P51451)
T10 construct: purchased Carna Biosciences
T10 sequence (P51451 whole entry): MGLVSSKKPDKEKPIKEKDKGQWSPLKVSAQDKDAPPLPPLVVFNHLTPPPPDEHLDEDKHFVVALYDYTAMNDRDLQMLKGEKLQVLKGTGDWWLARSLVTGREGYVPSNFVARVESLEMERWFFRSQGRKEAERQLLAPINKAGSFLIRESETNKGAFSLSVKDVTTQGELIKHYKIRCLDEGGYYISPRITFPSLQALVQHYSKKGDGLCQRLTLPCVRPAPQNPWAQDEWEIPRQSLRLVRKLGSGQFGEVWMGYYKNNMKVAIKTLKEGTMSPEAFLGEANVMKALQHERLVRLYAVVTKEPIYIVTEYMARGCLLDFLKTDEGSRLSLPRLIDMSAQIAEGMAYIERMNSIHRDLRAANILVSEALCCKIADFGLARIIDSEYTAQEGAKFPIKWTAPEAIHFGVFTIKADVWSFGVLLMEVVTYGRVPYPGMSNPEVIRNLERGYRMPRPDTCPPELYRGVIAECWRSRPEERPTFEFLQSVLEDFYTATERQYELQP

T4 sequence (Q15208 whole entry): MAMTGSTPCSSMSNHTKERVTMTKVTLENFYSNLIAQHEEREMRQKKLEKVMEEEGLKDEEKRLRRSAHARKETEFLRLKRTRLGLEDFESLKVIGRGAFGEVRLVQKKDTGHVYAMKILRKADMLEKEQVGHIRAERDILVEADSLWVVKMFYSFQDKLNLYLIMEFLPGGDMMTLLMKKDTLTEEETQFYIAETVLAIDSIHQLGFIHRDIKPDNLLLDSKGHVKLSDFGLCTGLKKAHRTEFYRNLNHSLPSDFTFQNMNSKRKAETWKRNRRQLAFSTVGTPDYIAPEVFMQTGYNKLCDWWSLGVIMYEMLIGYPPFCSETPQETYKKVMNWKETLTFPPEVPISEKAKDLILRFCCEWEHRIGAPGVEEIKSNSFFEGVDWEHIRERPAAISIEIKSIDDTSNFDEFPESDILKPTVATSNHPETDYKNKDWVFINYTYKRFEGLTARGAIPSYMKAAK
T5 sequence (Q9H2X6 whole entry): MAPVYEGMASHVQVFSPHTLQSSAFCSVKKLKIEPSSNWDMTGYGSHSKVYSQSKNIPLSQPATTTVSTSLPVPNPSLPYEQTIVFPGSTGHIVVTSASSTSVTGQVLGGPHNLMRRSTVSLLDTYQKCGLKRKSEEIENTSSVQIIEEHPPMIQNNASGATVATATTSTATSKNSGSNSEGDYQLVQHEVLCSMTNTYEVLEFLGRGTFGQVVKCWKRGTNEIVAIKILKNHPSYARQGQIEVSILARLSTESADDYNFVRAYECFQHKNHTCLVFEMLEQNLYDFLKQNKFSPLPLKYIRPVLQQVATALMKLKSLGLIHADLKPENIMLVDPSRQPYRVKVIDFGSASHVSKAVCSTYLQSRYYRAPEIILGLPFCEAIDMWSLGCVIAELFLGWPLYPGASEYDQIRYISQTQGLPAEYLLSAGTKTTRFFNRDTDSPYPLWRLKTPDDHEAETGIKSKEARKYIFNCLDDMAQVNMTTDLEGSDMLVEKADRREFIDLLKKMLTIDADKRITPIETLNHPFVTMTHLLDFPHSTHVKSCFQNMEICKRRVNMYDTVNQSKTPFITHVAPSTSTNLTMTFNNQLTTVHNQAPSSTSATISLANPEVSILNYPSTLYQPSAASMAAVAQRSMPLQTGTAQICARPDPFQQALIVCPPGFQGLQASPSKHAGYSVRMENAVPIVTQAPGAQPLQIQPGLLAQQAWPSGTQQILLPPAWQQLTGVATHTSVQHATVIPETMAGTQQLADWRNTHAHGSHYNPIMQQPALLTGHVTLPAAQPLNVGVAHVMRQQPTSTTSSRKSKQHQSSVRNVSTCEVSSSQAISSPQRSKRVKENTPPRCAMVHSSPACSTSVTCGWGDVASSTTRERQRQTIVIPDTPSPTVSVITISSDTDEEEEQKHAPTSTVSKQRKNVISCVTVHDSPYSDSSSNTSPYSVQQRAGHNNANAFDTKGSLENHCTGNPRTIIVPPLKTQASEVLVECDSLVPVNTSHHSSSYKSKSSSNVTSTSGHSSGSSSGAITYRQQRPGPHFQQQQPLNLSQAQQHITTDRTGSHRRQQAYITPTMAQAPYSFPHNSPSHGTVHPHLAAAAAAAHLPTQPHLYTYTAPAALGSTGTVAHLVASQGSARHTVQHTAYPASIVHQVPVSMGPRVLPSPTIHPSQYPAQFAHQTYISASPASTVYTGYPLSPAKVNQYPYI
T1 sequence (Q9HCP0 whole entry): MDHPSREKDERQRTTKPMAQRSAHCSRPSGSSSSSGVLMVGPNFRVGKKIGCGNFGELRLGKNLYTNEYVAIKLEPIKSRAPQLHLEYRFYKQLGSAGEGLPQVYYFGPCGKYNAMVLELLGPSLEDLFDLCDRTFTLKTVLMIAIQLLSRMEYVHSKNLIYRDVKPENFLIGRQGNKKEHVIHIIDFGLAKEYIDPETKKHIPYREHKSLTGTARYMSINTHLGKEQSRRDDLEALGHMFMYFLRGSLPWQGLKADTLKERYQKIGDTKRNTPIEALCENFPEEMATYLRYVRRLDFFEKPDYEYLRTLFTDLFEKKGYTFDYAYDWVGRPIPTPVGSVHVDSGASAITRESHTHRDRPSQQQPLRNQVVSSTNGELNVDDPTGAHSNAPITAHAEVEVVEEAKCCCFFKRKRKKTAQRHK
T9 sequence (P49760 whole entry): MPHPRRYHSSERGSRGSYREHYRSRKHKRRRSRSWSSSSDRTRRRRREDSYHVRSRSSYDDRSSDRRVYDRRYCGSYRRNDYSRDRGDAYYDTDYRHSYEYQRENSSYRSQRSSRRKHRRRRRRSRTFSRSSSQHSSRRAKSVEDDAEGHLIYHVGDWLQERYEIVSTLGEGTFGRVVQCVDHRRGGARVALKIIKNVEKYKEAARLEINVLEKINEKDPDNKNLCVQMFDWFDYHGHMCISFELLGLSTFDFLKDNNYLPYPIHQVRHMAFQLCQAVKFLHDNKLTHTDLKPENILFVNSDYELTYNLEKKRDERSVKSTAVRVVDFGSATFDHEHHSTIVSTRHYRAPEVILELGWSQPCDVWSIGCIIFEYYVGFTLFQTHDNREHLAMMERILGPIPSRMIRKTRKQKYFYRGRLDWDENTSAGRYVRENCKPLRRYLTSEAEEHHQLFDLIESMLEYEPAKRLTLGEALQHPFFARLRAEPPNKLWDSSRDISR
T3 sequence (O96017 whole entry): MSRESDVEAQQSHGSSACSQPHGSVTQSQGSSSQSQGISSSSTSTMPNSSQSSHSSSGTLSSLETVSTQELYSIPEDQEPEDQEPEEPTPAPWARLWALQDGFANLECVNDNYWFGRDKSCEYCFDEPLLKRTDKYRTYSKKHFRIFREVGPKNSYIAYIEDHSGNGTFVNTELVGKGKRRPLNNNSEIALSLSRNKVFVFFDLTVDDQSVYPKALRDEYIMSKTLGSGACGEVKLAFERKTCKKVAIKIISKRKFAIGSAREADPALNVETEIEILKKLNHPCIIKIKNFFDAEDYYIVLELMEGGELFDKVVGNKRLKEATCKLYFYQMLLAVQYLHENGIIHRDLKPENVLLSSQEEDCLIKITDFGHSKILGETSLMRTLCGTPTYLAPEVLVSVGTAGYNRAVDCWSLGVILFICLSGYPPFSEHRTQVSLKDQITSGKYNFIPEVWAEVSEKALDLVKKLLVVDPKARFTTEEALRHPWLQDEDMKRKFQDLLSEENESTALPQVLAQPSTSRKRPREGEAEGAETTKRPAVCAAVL

| SMILES | Percentage inhibition of kinase enzyme activity (CK1γ1) [%] | Percentage inhibition of kinase enzyme activity (TSSK1) [%] | Percentage inhibition of kinase enzyme activity (CHK2) [%] | Percentage inhibition of kinase enzyme activity (NDR1) [%] | Percentage inhibition of kinase enzyme activity (HIPK2) [%] | Percentage inhibition of kinase enzyme activity (BRSK1) [%] | Percentage inhibition of kinase enzyme activity (EPHB4) [%] | Percentage inhibition of kinase enzyme activity (PBK) [%] | Percentage inhibition of kinase enzyme activity (CLK2) [%] | Percentage inhibition of kinase enzyme activity (BLK) [%] |
| --- | --- | --- | --- | --- | --- | --- | --- | --- | --- | --- |
| CC#CC(=O)N1CCC[C@H]1c1nc(-c2ccc(C(=O)Nc3ccccn3)cc2)c2c(N)nccn12 [acalabrutinib] | 0.33 | -7.15 | -5.77 | -6.32 | -11.44 | -1.79 | -1.45 | -15.29 | -6.97 | 8.43 |
| C=CC(=O)N1CCC[C@@H](n2nc(-c3ccc(Oc4ccccc4)cc3)c3c(N)ncnc32)C1 [ibrutinib] | 3.68 | 9.10 | 14.14 | 2.65 | 2.01 | -7.32 | 26.52 | -9.30 | – | 101.19 |
| O=C(c1ccc(Oc2ccccc2)cc1Cl)c1c[nH]c2ncnc(N[C@@H]3CC[C@@H](CO)OC3)c12 [nemtabrutinib] | 0.57 | 5.68 | 49.89 | 3.34 | 3.26 | 12.83 | 37.75 | -7.49 | 56.28 | 102.70 |
| COc1ccc(F)cc1C(=O)NCc1ccc(-c2nn([C@@H](C)C(F)(F)F)c(N)c2C(N)=O)cc1 [pirtobrutinib] | 5.92 | -0.58 | 7.28 | 1.20 | 0.19 | 3.44 | 4.51 | -3.79 | 10.54 | 30.87 |
| C=CC(=O)N1CCC([C@@H]2CCNc3c(C(N)=O)c(-c4ccc(Oc5ccccc5)cc4)nn32)CC1 [zanubrutinib] | – | – | – | – | – | – | 12.92 | – | – | 98.41 |
